Consider 29 molecules from patent US20150266857A1, “NOVEL 3-INDOL SUBSTITUTED DERIVATIVES, PHARMACEUTICAL COMPOSITIONS AND METHODS FOR USE” (iTeos Therapeutics, priority 2014, published 2015).

Test [1] deals with T1, murine mastocytoma P815 cells overexpressing hTDO2 (Homo sapiens, UniProt P48775).
T1 construct: expressed in transfected cells; host or cells: murine mastocytoma P815 cells
In words: Cellular assay for TDO2 activity, hTDO2-overexpressing P815 cells. In kind it is cell-based. To be noted: P815 cells overexpressing hTDO2, overnight incubation, kynurenine in supernatant. On the procedure: The assay (adapted from Pilotte L et al., Proc Natl Acad Sci USA, 2012, 109(7), 2497-502) was performed in 96-well flat bottom plates seeded with murine mastocytoma P815 cells overexpressing hTDO2 (prepared as described in Pilotte et al., PNAS, 2012, 109(7), 2497-2502), at a concentration of 5×10^4 cells/well in a final volume of 200 μL. To determine TDO or IDO activity, the cells were incubated overnight at 37° C. at 5% CO2 in IMDM (Invitrogen) supplemented with 2% FBS and 2% penicillin/streptomycin in the presence of the compounds of the present invention, at different concentrations. The cells may be obtained from the American Type Cuylture Collecion [ATCC® TIB-64™ or commercially, e.g., from Sigma-Aldrich or Life Technologies.]
The plates were then centrifuged 5 min at 1000 rpm, and 100 μL of the supernatant were collected in a conical plate, 30 uL of TCA 30% were added and a further centrifugated at 3000×g for 10 minutes. 100 μL of the supernatant were collected in a flat bottomed plate and 100 μL of 2% (w/v) 4-(dimethylamino)-benzaldehyde in acetic acid and incubated for 5 min at room temperature. Kynurenine concentrations were determined by measuring the absorbance at 480 nm. A standard curve was made with pure kynurenine. The TDO activity was measured as described above using ten serial concentrations of the compounds of the present invention. Data were fitted using the Prism™ software (GraphPad Software, Inc.) using standard parameters.

Test [2] concerns the target T2, human glioblastoma A172 cells, naturally expressing hTDO2 (Homo sapiens, UniProt P48775).
T2 construct: human glioblastoma A172 cells, naturally expressing hTDO2; endogenous in cells; host or cells: human glioblastoma A172 cells (ATCC CRL-1620)
In words: Cellular assay for TDO2 activity, A172 cells. It is filed as cell-based. To be noted: overnight incubation, kynurenine in supernatant. In outline:
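A172 human glioblastoma cells naturally expressing TDO2, seeded at 1.25×10^4 cells/well, were incubated overnight at 37 °C in IMDM with 2% FBS and ten serial compound concentrations. Supernatant kynurenine, after TCA precipitation and Ehrlich's reagent, was read at 480 nm against a kynurenine standard curve; data curve-fitted.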

For test [3], the target named is T3, human recombinant TDO2 enzyme (Homo sapiens, UniProt P48775).
T3 construct: made in house
In words: Assay for TDO2 enzymatic activity determination. The note with it: human recombinant TDO2, L-Trp 1 mM, kynurenine absorbance at 480 nm. In kind it is biochemical. The procedure: To measure the TDO2 activity, the procedure described in Dolusic et al. J. Med. Chem.; 2011, 54, […] was adapted: the reaction mixture contained (final concentrations) potassium phosphate buffer (50 mM, pH 7.5), ascorbic acid (0.25 M), methylene blue (0.125 μM), catalase (40 units/mL, from bovine liver, Sigma), and human recombinant TDO2 enzyme (prepared as described in Dolusic et al. J. Med. Chem.; 2011, 54, 5320-5334; 0.9 μg) without or with the compounds of the present invention at the indicated concentrations (total volume 112.5 μL). The reaction was initiated by the addition of 37.5 μL of L-Trp (final concentration 1 mM) at room temperature. The reaction was conducted at room temperature during one hour and stopped by the addition of 30 μL of 30% (w/v) trichloroacetic acid.
To convert N-formylkynurenine into kynurenine, the reaction mixture was incubated at 65° C. for 30 min. Then 150 μL of the reaction mixture was mixed with 120 μL of 2.5% (w/v) 4-(dimethylamino)-benzaldehyde in acetic acid and incubated for 5 min at room temperature. Kynurenine concentrations were determined by measuring the absorbance at 480 nm. A standard curve was made with pure kynurenine. The TDO activity was measured as described above using ten serial concentrations of the compounds of the present invention. Data were fitted using the Prism™ software (GraphPad Software, Inc.) using standard parameters.

T2 sequence (P48775 whole entry): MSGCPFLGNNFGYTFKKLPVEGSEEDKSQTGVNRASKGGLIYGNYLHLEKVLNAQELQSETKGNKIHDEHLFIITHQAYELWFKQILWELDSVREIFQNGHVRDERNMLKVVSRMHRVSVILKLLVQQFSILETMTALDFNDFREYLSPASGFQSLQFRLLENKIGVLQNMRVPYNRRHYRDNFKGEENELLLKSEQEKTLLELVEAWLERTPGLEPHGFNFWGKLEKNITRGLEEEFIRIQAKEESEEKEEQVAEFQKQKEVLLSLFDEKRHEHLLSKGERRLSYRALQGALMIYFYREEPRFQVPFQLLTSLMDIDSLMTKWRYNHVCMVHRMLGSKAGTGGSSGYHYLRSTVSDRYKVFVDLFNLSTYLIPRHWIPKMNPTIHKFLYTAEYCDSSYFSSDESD
T1 sequence (P48775 whole entry): as above
T3 sequence (P48775 whole entry): as above

Broadly, the IC50 is the point on the concentration scale where inhibition reaches its midpoint. In turn, `NCc1nc2ccc(-c3c[nH]c4cc(F)ccc34)cc2[nH]1` [Compound 27, (6-(6-fluoro-1H-indol-3-yl)-1H-benzo[d]imidazol-2-yl)methanamine] came in with an IC50 in test [1] of 678 nM.

As to `CN(C)Cc1nc2ccc(-c3c[nH]c4cc(F)ccc34)cc2[nH]1` [Compound 28, 1-(6-(6-fluoro-1H-indol-3-yl)-1H-benzo[d]imidazol-2-yl)-N,N-dimethylmethanamine], the IC50 in test [1] is 1450 nM. The same measure, in the same setting: with `CC(=O)NCc1nc2ccc(-c3c[nH]c4cc(F)ccc34)cc2[nH]1` [Compound 30, N-((6-(6-fluoro-1H-indol-3-yl)-1H-benzo[d]imidazol-2-yl)methyl)acetamide] the figure was 896 nM; with `NCC(=O)NCc1nc2ccc(-c3c[nH]c4cc(F)ccc34)cc2[nH]1` [Compound 31, 2-amino-N-((6-(6-fluoro-1H-indol-3-yl)-1H-benzo[d]imidazol-2-yl)methyl)acetamide], 2300 nM; with `CS(=O)(=O)NCc1nc2ccc(-c3c[nH]c4cc(F)ccc34)cc2[nH]1` [Compound 32, N-((6-(6-fluoro-1H-indol-3-yl)-1H-benzo[d]imidazol-2-yl)methyl)methanesulfonamide], 460 nM. In turn, `CN1CCN(Cc2nc3ccc(-c4c[nH]c5cc(F)ccc45)cc3[nH]2)CC1` [Compound 33, 6-(6-fluoro-1H-indol-3-yl)-2-((4-methylpiperazin-1-yl)methyl)-1H-benzo[d]imidazole] returned an IC50 in test [1] of 635 nM. The same measure, in the same setting: the same measure for `CS(=O)(=O)N1CCN(Cc2nc3cc(-c4c[nH]c5cc(F)ccc45)ccc3[nH]2)CC1` [Compound 34, 5-(6-fluoro-1H-indol-3-yl)-2-((4-(methylsulfonyl)piperazin-1-yl)methyl)-1H-benzo[d]imidazole]: 863 nM; for `NCCc1nc2ccc(-c3c[nH]c4cc(F)ccc34)cc2[nH]1` [Compound 35, 2-(6-(6-fluoro-1H-indol-3-yl)-1H-benzo[d]imidazol-2-yl)ethanamine]: 689 nM; for `CC(=O)NCCc1nc2ccc(-c3c[nH]c4cc(F)ccc34)cc2[nH]1` [Compound 36, N-(2-(6-(6-fluoro-1H-indol-3-yl)-1H-benzo[d]imidazol-2-yl)ethyl)acetamide]: 1130 nM. The same measure, in the same setting: the same measure for `CS(=O)(=O)NCCc1nc2ccc(-c3c[nH]c4cc(F)ccc34)cc2[nH]1` [Compound 37, N-(2-(6-(6-fluoro-1H-indol-3-yl)-1H-benzo[d]imidazol-2-yl)ethyl)methanesulfonamide]: 1530 nM. In the case of `CS(=O)(=O)CCc1nc2cc(-c3c[nH]c4cc(F)ccc34)ccc2[nH]1` [Compound 38, 5-(6-fluoro-1H-indol-3-yl)-2-(2-(methylsulfonyl)ethyl)-1H-benzo[d]imidazole], the IC50 in test [1] was determined as 505 nM; in test [2], 512 nM. For the molecule `Fc1ccc2c(-c3ccc4nc(C5CCNCC5)[nH]c4c3)c[nH]c2c1` [Compound 39, 6-(6-fluoro-1H-indol-3-yl)-2-(piperidin-4-yl)-1H-benzo[d]imidazole], the IC50 in test [1] turned out to be 2860 nM.

In the case of `CS(=O)(=O)N1CCC(c2nc3ccc(-c4c[nH]c5cc(F)ccc45)cc3[nH]2)CC1` [Compound 40, 6-(6-fluoro-1H-indol-3-yl)-2-(1-(methylsulfonyl)piperidin-4-yl)-1H-benzo[d]imidazole], the IC50 in test [1] was found to be 750 nM.

In test [1], `CNCc1nc2cc(-c3c[nH]c4cc(F)ccc34)ccc2[nH]1` [Compound 44, 1-(5-(6-fluoro-1H-indol-3-yl)-1H-benzo[d]imidazol-2-yl)-N-methylmethanamine] displayed an IC50 of 345 nM.

With `Fc1ccc2c(-c3ccc4[nH]c(CN5CCOCC5)nc4c3)c[nH]c2c1` [Compound 45, 4-((5-(6-fluoro-1H-indol-3-yl)-1H-benzo[d]imidazol-2-yl)methyl)morpholine], inhibition in test [1] was half-maximal at 595 nM (IC50).

On to `Fc1ccc2c(-c3ccc4ocnc4c3)c[nH]c2c1` [Compound 47, 5-(6-fluoro-1H-indol-3-yl)benzo[d]oxazole], for which the IC50 was found to be 100 nM in test [1] and 479 nM in test [2]. In the case of `Cc1nc2cc(-c3c[nH]c4cc(F)ccc34)ccc2o1` [Compound 48, 5-(6-fluoro-1H-indol-3-yl)-2-methylbenzo[d]oxazole], the midpoint of inhibition in test [1], the IC50, lay at 118 nM. Still for that read-out and setting: with `Fc1ccc2c(-c3ccc4ncoc4c3)c[nH]c2c1` [Compound 53, 6-(6-fluoro-1H-indol-3-yl)benzo[d]oxazole] the figure was 79 nM. Same read-out and setting: the same measure for `Cc1nc2ccc(-c3c[nH]c4cc(F)ccc34)cc2o1` [Compound 54, 6-(6-fluoro-1H-indol-3-yl)-2-methylbenzo[d]oxazole]: 109 nM.

In test [1], `Fc1ccc2c(-c3ccc4nc(CN5CCNCC5)[nH]c4c3)c[nH]c2c1` [Compound 59, 6-(6-fluoro-1H-indol-3-yl)-2-(piperazin-1-ylmethyl)-1H-benzo[d]imidazole] returned an IC50 of 622 nM. The same measure, in the same setting: the same measure for `NC(=O)Cc1nc2ccc(-c3c[nH]c4cc(F)ccc34)cc2[nH]1` [Compound 60, 2-(6-(6-fluoro-1H-indol-3-yl)-1H-benzo[d]imidazol-2-yl)acetamide]: 638 nM. Consider `CN1CCN(CCc2nc3ccc(-c4c[nH]c5cc(F)ccc45)cc3o2)CC1` [Compound 105, 6-(6-fluoro-1H-indol-3-yl)-2-(2-(4-methylpiperazin-1-yl)ethyl)benzo[d]oxazole], for which the 50% inhibitory concentration (IC50) came out at 223 nM in test [2] and 913 nM in test [3].

In the case of `O=S(=O)(CCO)NCc1nc2ccc(-c3c[nH]c4cc(F)ccc34)cc2o1` [Compound 106, N-((6-(6-fluoro-1H-indol-3-yl)benzo[d]oxazol-2-yl)methyl)-2-hydroxyethanesulfonamide], the 50% inhibitory concentration (IC50) worked out at 326 nM in test [2] and 814 nM in test [3]. Take `O=S(=O)(CCN1CCOCC1)NCc1nc2ccc(-c3c[nH]c4cc(F)ccc34)cc2o1` [Compound 107, N-((6-(6-fluoro-1H-indol-3-yl)benzo[d]oxazol-2-yl)methyl)-2-morpholinoethanesulfonamide]: the IC50 amounted to 677 nM in test [2] and 2800 nM in test [3]. On to `CN1CCN(CCS(=O)(=O)NCc2nc3ccc(-c4c[nH]c5cc(F)ccc45)cc3o2)CC1` [Compound 122, N-((6-(6-fluoro-1H-indol-3-yl)benzo[d]oxazol-2-yl)methyl)-2-(4-methylpiperazin-1-yl)ethanesulfonamide], for which the values for the IC50 in test [2] and in test [3] were 344 nM and 2090 nM, respectively.

As to `O=S(=O)(CCN1CCNCC1)NCc1nc2ccc(-c3c[nH]c4cc(F)ccc34)cc2o1` [Compound 123, N-((6-(6-fluoro-1H-indol-3-yl)benzo[d]oxazol-2-yl)methyl)-2-(piperazin-1-yl)ethanesulfonamide], the half-inhibitory concentration (IC50) in test [2] came out at 498 nM; in test [3] it was 1360 nM.

For `O=S(=O)(CCN1CCCC1)NCc1nc2ccc(-c3c[nH]c4cc(F)ccc34)cc2o1` [Compound 124, N-((6-(6-fluoro-1H-indol-3-yl)benzo[d]oxazol-2-yl)methyl)-2-(pyrrolidin-1-yl)ethanesulfonamide], the half-inhibitory concentration (IC50) in test [2] was determined as 334 nM; in test [3], 1210 nM.

As for `CS(=O)(=O)NCc1nc2ccc(-c3c[nH]c4ccc(F)cc34)cc2o1` [Compound 128, N-((6-(5-fluoro-1H-indol-3-yl)benzo[d]oxazol-2-yl)methyl)methanesulfonamide], the IC50 in test [2] stood at 540 nM; in test [3], 6070 nM. Taken in the same sequence, the figures for `O=C1NS(=O)(=O)c2ccc(-c3c[nH]c4cc(F)ccc34)cc21` [Compound 130, 5-(6-fluoro-1H-indol-3-yl)benzo[d]isothiazol-3(2H)-one 1,1-dioxide] were 83 nM and 2420 nM.
